Source: patent US20160244404A1, “OPTICAL ISOMERS OF (+) AND (-)-BENZHYDRYL UREAS AND (+) AND (-)-1-[(3-CHLOROPHENYL)-PHENYL-METHYL] UREA, A PHARMACEUTICAL COMPOSITION BASED THEREON AND A METHOD FOR PRODUCING SAID OPTICAL ISOMERS” (priority 2013, published 2016)
Marks after values point to notes of the source that are not given here.

Experiments:
[1] = system: convulsions induced by pentylenetetrazol; assay: Anticonvulsant potency against convulsions induced by pentylenetetrazol; assay type: in vivo; details: for Protection against stage 3 convulsions (% protection) / Protection against stage 4 convulsions (% protection) / Protection against stage 5 convulsions (% protection) / convulsive manifestations (points) induced by pentylenetetrazol (X ± SE): n = 10; for convulsive manifestations (points) induced by pentylenetetrazol (X ± SE): five-point scale; for mean convulsions score compared with that of the reference sample: all doses studied: 100 mg/kg, 150 mg/kg, 250 mg/kg; for anticonvulsive potency compared with the reference substance: on the basis of mean convulsions scores, 100, 150, 250 mg/kg
Procedure: (§1) Convulsions were induced by the administration of pentylenetetrazol. The severity (stage) of the convulsions was rated on a five-point scale. The anticonvulsant potency was rated on the basis of the substance's ability to reduce the severity of convulsions induced by the pentylenetetrazol. Halodif substances were administered intragastrically over 2 hr prior to the pentylenetetrazol. The pentylenetetrazol was administered subcutaneously. Probit analysis was used for statistical processing of the results with Student's test, ANOVA and criterion x. The differences in the results were considered statistically reliable at a significance level of p<0.05.
In the second phase the anticonvulsant potency of the reference substance was study in doses of 50 mg/kg, 100 mg/kg, 150 mg/kg, 200 mg/kg and 500 mg/kg (Table 2). The reference substance was racemic halodif. […] The halodif reference substance was used in doses of 50 mg/kg, 100 mg/kg, 150 mg/kg, 200 mg/kg and 500 mg/kg. Two hours after the halodif substance was administered to the animals the pentylenetetrazol (110 mg/kg) was administered and stage 3 and stage 5 convulsions were rated.
Samples were compared on the basis of the mean score for convulsive manifestations induced by pentylenetetrazol after administration of the samples under study.
The anticonvulsive potency of the samples of the halodif substance under study were also compared with respect to the proportion of animals in which the substance under study prevented the development of convulsions of differing severity induced by pentylenetetrazol. Table 4 presents the results expressed as the percentage of animals in which no convulsions of the specified stage developed (% protection).

animals = assay: Establishing the convulsion-inducing dose of pentylenetetrazol; assay type: in vivo
Procedure: as §1
In the first phase of the study the optimum convulsion-inducing dose of pentylenetetrazol, CD97, which was 110 mg/kg (Table 1) was established.

[2] = doses of 100 mg/kg and 150 mg/kg, stages 3 and 4
[3] = reference substance 50 mg/kg intragastrically 2 h before pentylenetetrazol 110 mg/kg
[4] = reference substance 100 mg/kg intragastrically 2 h before pentylenetetrazol 110 mg/kg
[5] = reference substance 150 mg/kg intragastrically 2 h before pentylenetetrazol 110 mg/kg
[6] = reference substance 200 mg/kg intragastrically 2 h before pentylenetetrazol 110 mg/kg
[7] = reference substance 500 mg/kg intragastrically 2 h before pentylenetetrazol 110 mg/kg
[8] = sample dose 100 mg/kg 2 hours before pentylenetetrazol 110 mg/kg
[9] = sample dose 100 mg/kg intragastrically 2 hours before pentylenetetrazol 110 mg/kg
[10] = sample dose 150 mg/kg 2 hours before pentylenetetrazol 110 mg/kg
[11] = sample dose 150 mg/kg intragastrically 2 hours before pentylenetetrazol 110 mg/kg
[12] = sample dose 250 mg/kg 2 hours before pentylenetetrazol 110 mg/kg
[13] = sample dose 250 mg/kg intragastrically 2 hours before pentylenetetrazol 110 mg/kg
[14] = sample dose 100 mg/kg 2 hours before pentylenetetrazol 110 mg/kg, listed as Sample 2/(−) isomer
[15] = sample dose 150 mg/kg 2 hours before pentylenetetrazol 110 mg/kg, listed as Sample 2/(−) isomer
[16] = sample dose 250 mg/kg 2 hours before pentylenetetrazol 110 mg/kg, listed as Sample 2/(−) isomer
[17] = pentylenetetrazol dose 90, 5 animals in the group
[18] = pentylenetetrazol dose 100, 5 animals in the group
[19] = pentylenetetrazol dose 110, 5 animals in the group
[20] = sample dose 100 mg/kg 2 hours before pentylenetetrazol 110 mg/kg, listed as Sample 4/(+) isomer
[21] = sample dose 250 mg/kg 2 hours before pentylenetetrazol 110 mg/kg, listed as Sample 4/(+)isomer

## NC(=O)NC(c1ccccc1)c1cccc(Cl)c1 (racemic) [Reference sample, 1-[(3-chlorophenyl)-phenyl-methyl]urea, reference compound]
[1]; dose 200 mg/kg and higher, pentylenetetrazol 110 mg/kg
  appearance of stage 5 convulsions: completely prevented
[1]; [2]
  protection compared with samples 1 and 2 ((−)-isomer of halodif): reliably higher protection
  protection compared with samples 3 and 4 ((+)-isomer of halodif): reliably lower protection
[1]; lowest dose (50 mg/kg), pentylenetetrazol 110 mg/kg
  animals protected from tonic convulsions in all extremities (stage 5): 20%
[1]; [3]
  Proportion of animals with stage 3 convulsions (%, n = 5): 100%
  Proportion of animals with stage 5 convulsions (%, n = 5): 80%
[1]; [4]
  Proportion of animals with stage 3 convulsions (%, n = 5): 100%
  Proportion of animals with stage 5 convulsions (%, n = 5): 20%
[1]; [5]
  Proportion of animals with stage 3 convulsions (%, n = 5): 70%
  Proportion of animals with stage 5 convulsions (%, n = 5): 10%
[1]; [6]
  Proportion of animals with stage 3 convulsions (%, n = 5): 60%
  Proportion of animals with stage 5 convulsions (%, n = 5): 0%
[1]; [7]
  Proportion of animals with stage 3 convulsions (%, n = 5): 60%
  Proportion of animals with stage 5 convulsions (%, n = 5): 0%
[1]; [8]
  Protection against stage 3 convulsions (% protection): 20%
  Protection against stage 4 convulsions (% protection): 50%
  Protection against stage 5 convulsions (% protection): 80%
[1]; [9]
  convulsive manifestations (points) induced by pentylenetetrazol (X ± SE): 3.5 ± 0.31 points
[1]; [10]
  Protection against stage 3 convulsions (% protection): 30%
  Protection against stage 4 convulsions (% protection): 70%
  Protection against stage 5 convulsions (% protection): 90%
[1]; [11]
  convulsive manifestations (points) induced by pentylenetetrazol (X ± SE): 2.9 ± 0.28 points
[1]; [12]
  Protection against stage 3 convulsions (% protection): 50%
  Protection against stage 4 convulsions (% protection): 80%
  Protection against stage 5 convulsions (% protection): 100%
[1]; [13]
  convulsive manifestations (points) induced by pentylenetetrazol (X ± SE): 2.6 ± 0.33 points
[1]; starting at a dose of 150 mg/kg, pentylenetetrazol 110 mg/kg
  animals in which development of clonic convulsions (stage 3 convulsions) was prevented: 30-40%

## NC(=O)NC(c1ccccc1)c1cccc(Cl)c1 (single isomer, unassigned; (-)) [Sample 1/(−) isomer, (−)-1-[(3-chlorophenyl)-phenyl-methyl]urea]
[1]
  mean convulsions score compared with that of the reference sample: higher
  anticonvulsive potency compared with the reference substance: less anticonvulsive potency
[1]; [8]
  Protection against stage 3 convulsions (% protection): 10%
  Protection against stage 4 convulsions (% protection): 40%
  Protection against stage 5 convulsions (% protection): 60* %
[1]; [14]
  Protection against stage 4 convulsions (% protection): 20* %
  Protection against stage 5 convulsions (% protection): 70%
[1]; [9]
  convulsive manifestations (points) induced by pentylenetetrazol (X ± SE): 3.8 ± 0.39 points
[1]; sample dose 100 mg/kg intragastrically 2 hours before pentylenetetrazol 110 mg/kg, listed as Sample 2/(−) isomer
  convulsive manifestations (points) induced by pentylenetetrazol (X ± SE): 4.1 ± 0.23 points
[1]; sample dose 100 mg/kg intragastrically 2 hours before pentylenetetrazol 110 mg/kg, listed as sample 1
  convulsive manifestations (points) induced by pentylenetetrazol (X ± SE): 3.8±0.39 points
[1]; [10]
  Protection against stage 3 convulsions (% protection): 20%
  Protection against stage 4 convulsions (% protection): 70%
  Protection against stage 5 convulsions (% protection): 80%
[1]; [15]
  Protection against stage 3 convulsions (% protection): 10%
  Protection against stage 4 convulsions (% protection): 40* %
  Protection against stage 5 convulsions (% protection): 70%
[1]; [11]
  convulsive manifestations (points) induced by pentylenetetrazol (X ± SE): 2.9 ± 0.29 points
[1]; sample dose 150 mg/kg intragastrically 2 hours before pentylenetetrazol 110 mg/kg, listed as Sample 2/(−) isomer
  convulsive manifestations (points) induced by pentylenetetrazol (X ± SE): 3.5 ± 0.22 points
[1]; [12]
  Protection against stage 3 convulsions (% protection): 40%
  Protection against stage 4 convulsions (% protection): 80%
  Protection against stage 5 convulsions (% protection): 100%
[1]; [16]
  Protection against stage 3 convulsions (% protection): 30%
  Protection against stage 4 convulsions (% protection): 70%
[1]; [13]
  convulsive manifestations (points) induced by pentylenetetrazol (X ± SE): 2.8 ± 0.41 points
[1]; sample dose 250 mg/kg intragastrically 2 hours before pentylenetetrazol 110 mg/kg, listed as Sample 2/(−) isomer
  convulsive manifestations (points) induced by pentylenetetrazol (X ± SE): 3.0 ± 0.37 points
[1]; sample dose 250 mg/kg intragastrically 2 hours before pentylenetetrazol 110 mg/kg, listed as sample 1
  convulsive manifestations (points) induced by pentylenetetrazol (X ± SE): 2.8±0.41 points

## C1CCc2nnnn2CC1 [Pentylenetetrazol, pentylenetetrazol]
animals; pentylenetetrazol dose 80 (no unit in table; mg/kg), 5 animals in the group
  Number of animals with stage 3 convulsions: 0
animals; pentylenetetrazol dose 80, 5 animals in the group
  Proportion of animals with stage 3 (%): 0%
animals; [17]
  Number of animals with stage 3 convulsions: 3
  Proportion of animals with stage 3 (%): 60%
animals; [18]
  Number of animals with stage 3 convulsions: 4
  Proportion of animals with stage 3 (%): 80%
animals; [19]
  Number of animals with stage 3 convulsions: 4
  Proportion of animals with stage 3 (%): 80%
animals; subcutaneous
  optimum convulsion-inducing dose of pentylenetetrazol, CD97: 110 mg/kg

## NC(=O)N[C@H](c1ccccc1)c1cccc(Cl)c1 [Sample 3/(+) isomer, (+)-1-[(3-chlorophenyl)-phenyl-methyl]urea]
[1]
  mean convulsions score compared with that of the reference sample: lower convulsions score
  anticonvulsive potency compared with the reference substance: more anticonvulsive potency
[1]; all stages (3, 4 and 5)
  protection against convulsions, comparison of the samples: greater protection
[1]; in vivo
  anticonvulsive potency compared with its optical antipode: higher anticonvulsive potency
[1]; [8]
  Protection against stage 3 convulsions (% protection): 30%
  Protection against stage 4 convulsions (% protection): 60%
  Protection against stage 5 convulsions (% protection): 80%
[1]; [20]
  Protection against stage 3 convulsions (% protection): 20%
  Protection against stage 4 convulsions (% protection): 80%
  Protection against stage 5 convulsions (% protection): 100%
[1]; [9]
  convulsive manifestations (points) induced by pentylenetetrazol (X ± SE): 3.2 ± 0.42 points
[1]; sample dose 100 mg/kg intragastrically 2 hours before pentylenetetrazol 110 mg/kg, listed as Sample 4/(+) isomer
  convulsive manifestations (points) induced by pentylenetetrazol (X ± SE): 3.0 ± 0.21 points
[1]; [10]
  Protection against stage 3 convulsions (% protection): 40%
  Protection against stage 4 convulsions (% protection): 90%
  Protection against stage 5 convulsions (% protection): 100%
[1]; sample dose 150 mg/kg 2 hours before pentylenetetrazol 110 mg/kg, listed as Sample 4/(+)isomer
  Protection against stage 3 convulsions (% protection): 30%
[1]; [11]
  convulsive manifestations (points) induced by pentylenetetrazol (X ± SE): 2.5 ± 0.31 points
[1]; sample dose 150 mg/kg intragastrically 2 hours before pentylenetetrazol 110 mg/kg, listed as Sample 4/(+) isomer
  convulsive manifestations (points) induced by pentylenetetrazol (X ± SE): 2.6 ± 0.31 points
[1]; [12]
  Protection against stage 3 convulsions (% protection): 70%
  Protection against stage 4 convulsions (% protection): 100%
  Protection against stage 5 convulsions (% protection): 100%
[1]; [21]
  Protection against stage 3 convulsions (% protection): 50%
  Protection against stage 4 convulsions (% protection): 90%
[1]; [13]
  convulsive manifestations (points) induced by pentylenetetrazol (X ± SE): 1.9 ± 0.28 points
[1]; sample dose 250 mg/kg intragastrically 2 hours before pentylenetetrazol 110 mg/kg, listed as Sample 4/(+) isomer
  convulsive manifestations (points) induced by pentylenetetrazol (X ± SE): 2.5 ± 0.27 points
